Test system: laccase from Trichoderma harzianum strain HZN10 (free, purified)
Assay: ABTS oxidation, absorbance at […] nm
Type: biochemical
Details: free enzyme; ABTS 0.2-2.4 mM; standard assay 0.1 M sodium phosphate pH 6, 25 °C

SMILES: CCn1c(=NN=c2sc3cc(S(=O)(=O)O)ccc3n2CC)sc2cc(S(=O)(=O)O)ccc21 [ABTS, 2,2′-azino-bis(3-ethylbenzothiazoline-6-sulfonic acid)]
- Km: 500 µM

Reference: PMC6296572 (Journal of Genetic Engineering & Biotechnology, 2017)
